The text below walks through data of US11059818B2, “Triazolopyridine inhibitors of myeloperoxidase” (BRISTOL-MYERS SQUIBB COMPANY, priority 2016, dated 2021).

As usually defined, the IC50 is the concentration at which inhibition is half-maximal. A low value points to greater potency.

For assay [1], the target named is T1, myeloperoxidase (Homo sapiens (Human), UniProt P05164). Nature of the assay: MPO Chlorination Assay (APF Assay). The format is biochemical. Particulars: potency range class. On the procedure: (§1) [formula] where A=minimal Y value (activity level of inhibited sample), B=maximal Y value (activity level of uninhibited sample), C=Log IC50, D=Hill Slope, x=concentration of inhibitor. MPO Chlorination Assay (APF Assay)
MPO chlorination activity was measured in 100 mM KPi (pH 7.4) by utilizing the non-fluorescent reagent Aminophenyl fluorescein (APF, Invitrogen Cat. #A36003). APF is cleaved by (—OCl) to yield the fluorescent compound fluorescein. Reactions were carried out in 50 μL total volume by adding a 25 μL mixture of 200 pM myeloperoxidase and 120 mM NaCl to 100 nL inhibitor in 100% DMSO in a 384 well, non-binding surface clear bottom plate (Corning #3655). Enzyme, inhibitor, and chloride were preincubated for ten minutes at rt.
After the ten minute preincubation, 25 μL of an APF mixture containing […], 120 mM NaCl and 10 μM H2O2 was added to the plate using the internal dispensing system of a Hammatsu FDSS 6000. Kinetic determinations were carried out immediately on the FDSS 6000 (3 minute kinetic read, 1 read every second, ex: 485 nm, em: 535 nm). IC50 values for inhibitors were calculated by taking the slope of the linear portion of the kinetic measurement (20 seconds to ˜80-120 secs). […]
[formula] where A=minimal Y value (activity level of inhibited sample), B=maximal Y value (activity level of uninhibited sample), C=Log IC50, D=Hill Slope, x=concentration of inhibitor.

The target of assay [2] is T1, myeloperoxidase. Nature of the assay: MPO Peroxidation Assay (Amplex Red Assay). Format: biochemical. The note with it: potency range class. On the procedure: MPO Peroxidation Assay (Amplex Red Assay)
MPO peroxidation activity was measured in 100 mM KPi (pH 7.4) by utilizing the non-fluorescent reagent Amplex Red (Invitrogen Cat. #A12222) which can be oxidized to the highly fluorescent resorufin. Amplex Red is oxidized by the peroxidase action of MPO to resorufin. Reactions were carried out in 50 μL total volume by adding a 25 μL mixture of 200 pM myeloperoxidase and 40 nM H2O2(Sigma #349887) to 100 nL inhibitor in 100% DMSO in a 384 well Perkin Elmer Optiplate. Enzyme and compound were preincubated for ten minutes at rt.
After the ten minute preincubation, 25 μL of an Amplex Red mixture containing 200 μM Amplex Red and 10 mM H2O2 was added to the plate. Kinetic determinations were carried out immediately on a Perkin Elmer Envision (15 minute kinetic read, Ex: 535 nm, Em: 590 nm).
IC50 values were calculated by determining the slope of the linear portion of the kinetic trace (180-540 secs), and using that calculated slope to determine % inhibition occurring at each concentration of inhibitor using the following equation:
as §1

T1 sequence (P05164 49-745): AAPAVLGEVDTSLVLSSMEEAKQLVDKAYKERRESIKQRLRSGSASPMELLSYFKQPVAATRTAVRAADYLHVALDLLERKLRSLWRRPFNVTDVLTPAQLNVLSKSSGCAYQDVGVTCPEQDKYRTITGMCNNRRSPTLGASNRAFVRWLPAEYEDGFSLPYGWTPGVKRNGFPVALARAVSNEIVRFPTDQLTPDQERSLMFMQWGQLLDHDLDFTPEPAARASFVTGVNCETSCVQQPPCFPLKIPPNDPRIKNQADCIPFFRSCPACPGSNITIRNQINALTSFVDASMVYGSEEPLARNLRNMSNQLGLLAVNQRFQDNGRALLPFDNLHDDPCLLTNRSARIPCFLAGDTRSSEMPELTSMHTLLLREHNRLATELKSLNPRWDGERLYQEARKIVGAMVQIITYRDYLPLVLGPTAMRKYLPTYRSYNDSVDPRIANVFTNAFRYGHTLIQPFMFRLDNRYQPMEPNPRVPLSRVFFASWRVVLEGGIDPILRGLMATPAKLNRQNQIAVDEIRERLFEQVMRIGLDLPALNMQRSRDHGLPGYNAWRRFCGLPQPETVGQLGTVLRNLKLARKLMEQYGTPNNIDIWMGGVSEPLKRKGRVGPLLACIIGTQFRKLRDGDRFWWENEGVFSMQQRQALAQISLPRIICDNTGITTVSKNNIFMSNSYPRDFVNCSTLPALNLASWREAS

Turning to `Nc1cc([C@H](CCN[C@H]2CC[C@H](c3ccccc3)CC2)c2cnn(Cc3cccc(OC(F)F)c3)c2)c2nn[nH]c2n1` [Example 33A, 7(S)-[1-(1-{[3-(Difluoromethoxy)phenyl]methyl}-1H-pyrazol-4-yl)-3-{[trans-4-phenylcyclohexyl]amino}propyl]-3H-[1,2,3]triazolo[4,5-b]pyridin-5-amine], the values for the IC50 on myeloperoxidase [1] and at myeloperoxidase [2] were 101 to 999 nM and 1000 to 10000 nM, respectively.
For `Nc1cc(C(CCN[C@H]2CC[C@H](c3ccccc3)CC2)c2cn[nH]c2)c2nn[nH]c2n1` (stereo partly drawn) [Example 22, 7-[1-(1H-Pyrazol-4-yl)-3-{[trans-4-phenylcyclohexyl]amino}propyl]-3H-[1,2,3]triazolo[4,5-b]pyridin-5-amine] the same measures were 101 to 999 nM and 1000 to 10000 nM.
In the same order, the values of `Nc1cc(C(CCN[C@H]2CC[C@H](c3ccccc3)CC2)c2cccnc2)c2nn[nH]c2n1` (stereo partly drawn) [Example 34, 7-[1-(Pyridin-3-yl)-3-{[trans-4-phenylcyclohexyl]amino}propyl]-3H-[1,2,3]triazolo[4,5-b]pyridin-5-amine] are 1 to 100 nM and 101 to 999 nM.
On to `Nc1cc(C(CCNCc2ccccc2)c2cnn(Cc3cccc(O)c3)c2)c2nn[nH]c2n1` (stereo not drawn) [Example 46], for which the IC50 at myeloperoxidase [1] and against myeloperoxidase [2] was 101 to 999 nM throughout.
As to `Nc1cc(C(CCN[C@H]2CC[C@H](c3ccccc3)CC2)c2cncc(F)c2)c2nn[nH]c2n1` (stereo partly drawn) [Example 44], the 50% inhibitory concentration (IC50) lay within 101 to 999 nM against myeloperoxidase [1] and 1000 to 10000 nM on myeloperoxidase [2].
In the case of `Nc1cc(C(CCN[C@H]2CC[C@H](c3ccccc3)CC2)c2cnn(CCC(F)(F)F)c2)c2nn[nH]c2n1` (stereo partly drawn) [Example 30, 7-(3-{[trans-4-Phenylcyclohexyl]amino}-1-[1-(3,3,3-trifluoropropyl)-1H-pyrazol-4-yl]propyl)-3H-[1,2,3]triazolo[4,5-b]pyridin-5-amine], the IC50 against myeloperoxidase [1] lay in the range of 1 to 100 nM; on myeloperoxidase [2], 101 to 999 nM.
